Columns and labels:
Escherichia coli RR1 = test: Sensitivity to enzymes, detergents or urea, residual activity by agar diffusion test; format: physicochemical; conditions: polymyxin B 0.1 μg ml^−1
Method: The sensitivities of the antimicrobial agent to proteases (all from Sigma-Aldrich, Oakville, ON) or other agents was tested by treating P. polymyxa JB05-01-1 culture supernatant with 2 mg ml^−1 final concentration of proteinase K (Tritirachium album), α-chymotrypsin (bovine pancreas), lipase (Sigma-Aldrich, Oakville, ON), trypsin (porcine pancreas), urea (Sigma-Aldrich, St. Louis Mo.), sodium dodecyl sulfate (SDS) (Sigma-Aldrich, St. Louis Mo.) for 1 h at 37° C. (Motta et al. 2007). Thermal stability of the antimicrobial activity was determined by holding aliquots (1000 μl) of 20 h culture supernatant at temperatures ranging from 50° C. to 90° C. for 30 min or at 100° C. for 10 min. The effect of pH was determined by adjusting the pH of P. polymyxa JB05-01-1 culture supernatant from 2 to 9 using 5 M HCl or NaOH. The activity of each sample was compared with the activity of untreated P. polymyxa JB05-01 culture supernatant at pH 6.8.
The effect of several organic solvents was evaluated by stirring 20 h culture supernatant for 2 h with 10% (v/v) acetonitrile, hexane, propanol, ethanol, toluene, acetone, butanol or methanol (all solvents were obtained from Sigma-Aldrich, St. Louis Mo.). Residual antimicrobial activities were tested using the agar diffusion assay against E. coli RR1 as described herein, with controls for effects of residual solvent.

[1] = test system: Pediococcus pentosaceus ATCC 25745; test: Agar well diffusion method; format: cell-based; design: key: No inhibition at concentrations up of 0.1 μgml−1.; +: Diameter of the inhibition zone 10 ± 2 mm; ++: Diameter of the inhibition zone 16 ± 2 mm; +++: Diameter of the inhibition zone 28 ± 2 mm; conditions: medium LB; polymyxin B at 0.1 μg ml^−1
Method: (§1) The qualitative antimicrobial spectrum of P. polymyxa culture supernatant was determined using the agar well diffusion method (Wolf and Gibbons 1996). […] The seeded agar was then poured into a sterile Petri plate and allowed to solidify at room temperature. Wells (7 mm) were cut in the solidified agar using a sterile metal cork borer and filled with 80 μl of supernatant. The plates were left at 5° C. for 2 h to allow diffusion of the tested aliquot and then incubated aerobically for 18 h at 30° C. Absence or presence of inhibition zones as well as their diameters were recorded.

[2] = test system: Lactococcus lactis ATCC 7962; test: Agar well diffusion method; format: cell-based; design: key: No inhibition at concentrations up of 0.1 μgml−1.; +: Diameter of the inhibition zone 10 ± 2 mm; ++: Diameter of the inhibition zone 16 ± 2 mm; +++: Diameter of the inhibition zone 28 ± 2 mm; conditions: medium MRS; polymyxin B at 0.1 μg ml^−1
Method: as §1

[3] = test system: Bacillus lecheniformis LRC 8422; test: Agar well diffusion method; format: cell-based; design: key: No inhibition at concentrations up of 0.1 μgml−1.; +: Diameter of the inhibition zone 10 ± 2 mm; ++: Diameter of the inhibition zone 16 ± 2 mm; +++: Diameter of the inhibition zone 28 ± 2 mm; conditions: medium LB; polymyxin B at 0.1 μg ml^−1
Method: as §1

[4] = test system: Enterococcus mundtii LRC 8369; test: Agar well diffusion method; format: cell-based; design: key: No inhibition at concentrations up of 0.1 μgml−1.; +: Diameter of the inhibition zone 10 ± 2 mm; ++: Diameter of the inhibition zone 16 ± 2 mm; +++: Diameter of the inhibition zone 28 ± 2 mm; conditions: medium LB; polymyxin B at 0.1 μg ml^−1
Method: as §1

[5] = test system: Pediococcus acidilactici ATCC 25740; test: Agar well diffusion method; format: cell-based; design: key: No inhibition at concentrations up of 0.1 μgml−1.; +: Diameter of the inhibition zone 10 ± 2 mm; ++: Diameter of the inhibition zone 16 ± 2 mm; +++: Diameter of the inhibition zone 28 ± 2 mm; conditions: medium MRS; polymyxin B at 0.1 μg ml^−1
Method: as §1

[6] = test system: Bacillus circulans LRC 9E2; test: Agar well diffusion method; format: cell-based; design: key: No inhibition at concentrations up of 0.1 μgml−1.; +: Diameter of the inhibition zone 10 ± 2 mm; ++: Diameter of the inhibition zone 16 ± 2 mm; +++: Diameter of the inhibition zone 28 ± 2 mm; conditions: medium LB; polymyxin B at 0.1 μg ml^−1
Method: as §1

[7] = test system: Streptococcus bovis ATCC 33317; test: Agar well diffusion method; format: cell-based; design: key: No inhibition at concentrations up of 0.1 μgml−1.; +: Diameter of the inhibition zone 10 ± 2 mm; ++: Diameter of the inhibition zone 16 ± 2 mm; +++: Diameter of the inhibition zone 28 ± 2 mm; conditions: medium LB; polymyxin B at 0.1 μg ml^−1
Method: as §1

[8] = test system: Paenibacillus polymyxa ATCC 43865; test: Agar well diffusion method; format: cell-based; design: key: No inhibition at concentrations up of 0.1 μgml−1.; +: Diameter of the inhibition zone 10 ± 2 mm; ++: Diameter of the inhibition zone 16 ± 2 mm; +++: Diameter of the inhibition zone 28 ± 2 mm; conditions: medium LB; polymyxin B at 0.1 μg ml^−1
Method: as §1

[9] = test system: Butyrivibrio fibrisolvens LRC OR85; test: Agar well diffusion method; format: cell-based; conditions: medium L-10; polymyxin B at 0.1 μg ml^−1
Method: as §1

[10] = test system: Fibrobacter succinogenes ATCC 19169; test: Agar well diffusion method; format: cell-based; conditions: medium L-10; polymyxin B at 0.1 μg ml^−1
Method: as §1

E. coli RR1 = test: Effect of culture supernatant on exponentially growing E. coli RR1 (viable counts, OD600); format: cell-based, Escherichia coli; conditions: viability of E. coli RR1 cells; OD600nm constant
Method: To determine the effect of P. polymyxa JB05-01-1 culture supernatant, E. coli RR1 cells were cultivated in the presence of concentrated P. polymyxa culture supernatant containing JB05-01-1 at final total activity of 0, 32, and 96 AU/ml. The OD600nm of culture was determined every two hours using a multi-detection microplate reader (Bio-Teck instrument Inc, Winooski, Vt., USA). The corresponding final cell concentration expressed as CFU/ml was determined as described by Naghmouchi et al. (2008). The inhibitory activity (I.A.) of culture supernatant containing JB05-01-1 was calculated as a percentage, I.A.=100-100[OD600(x)/OD600(i)], where (x) is culture supernatant containing JB05-01-1 at the corresponded total activity and (i) is the control culture. Data was reported as means of duplicate analyses.

[11] = test system: Pantoea agglomerans LRC BC1; test: Agar well diffusion method; format: cell-based; conditions: medium TSB; polymyxin B at 0.1 μg ml^−1
Method: (§2) The qualitative antimicrobial spectrum of P. polymyxa culture supernatant was determined using the agar well diffusion method (Wolf and Gibbons 1996). Briefly, a 25-ml volume of molten tryptic soy agar (0.75% agar w/v) was cooled to 47° C. and seeded with 1% (v/v) overnight TSB culture of an indicator strain. The seeded agar was then poured into a sterile Petri plate and allowed to solidify at room temperature. Wells (7 mm) were cut in the solidified agar using a sterile metal cork borer and filled with 80 μl of supernatant. The plates were left at 5° C. for 2 h to allow diffusion of the tested aliquot and then incubated aerobically for 18 h at 30° C. Absence or presence of inhibition zones as well as their diameters were recorded.

[12] = test system: Escherichia coli LRC SA1650; test: Agar well diffusion method; format: cell-based; conditions: medium TSB; polymyxin B at 0.1 μg ml^−1
Method: as §2

Escherichia coli LRC TB1 = test: Agar well diffusion method; format: cell-based; conditions: medium TSB; polymyxin B at 0.1 μg ml^−1
Method: as §2

Escherichia coli LRC RR1 = test: Agar well diffusion method; format: cell-based; conditions: medium TSB; polymyxin B at 0.1 μg ml^−1
Method: as §2

[13] = test system: Pseudomonas fluorescens LRC R73; test: Agar well diffusion method; format: cell-based; conditions: medium TSB; polymyxin B at 0.1 μg ml^−1
Method: as §2

[14] = test system: Paenibacillus polymyxa ATCC 7070; test: Agar well diffusion method; format: cell-based; design: key: No inhibition at concentrations up of 0.1 μgml−1.; +: Diameter of the inhibition zone 10 ± 2 mm; ++: Diameter of the inhibition zone 16 ± 2 mm; +++: Diameter of the inhibition zone 28 ± 2 mm; conditions: medium LB; polymyxin B at 0.1 μg ml^−1
Method: as §2

Listeria ivanovii HPB 28 = test: Agar well diffusion method; format: cell-based; design: key: No inhibition at concentrations up of 0.1 μgml−1.; +: Diameter of the inhibition zone 10 ± 2 mm; ++: Diameter of the inhibition zone 16 ± 2 mm; +++: Diameter of the inhibition zone 28 ± 2 mm; conditions: medium TSB; polymyxin B at 0.1 μg ml^−1
Method: as §2

[15] = test system: Paenibacillus polymyxa JB05-01-1; test: Agar well diffusion method; format: cell-based; design: key: No inhibition at concentrations up of 0.1 μgml−1.; +: Diameter of the inhibition zone 10 ± 2 mm; ++: Diameter of the inhibition zone 16 ± 2 mm; +++: Diameter of the inhibition zone 28 ± 2 mm; conditions: medium LB; polymyxin B at 0.1 μg ml^−1
Method: as §2

Listeria innocua HPB 13 = test: Agar well diffusion method; format: cell-based; design: key: No inhibition at concentrations up of 0.1 μgml−1.; +: Diameter of the inhibition zone 10 ± 2 mm; ++: Diameter of the inhibition zone 16 ± 2 mm; +++: Diameter of the inhibition zone 28 ± 2 mm; conditions: medium TSB; polymyxin B at 0.1 μg ml^−1
Method: as §2

Polymyxin B
% of residual activity (Escherichia coli RR1; Chymotrypsin 2 mg ml^−1, 1 h at 37° C.): 79.5% | % of residual activity (Escherichia coli RR1; Lipase 2 mg ml^−1, 1 h at 37° C.): 58.3% | % of residual activity (Escherichia coli RR1; Proteinase K 2 mg ml^−1, 1 h at 37° C.): 4.5% | % of residual activity (Escherichia coli RR1; SDS 2 mg ml^−1, 1 h at 37° C.): 70.1% | % of residual activity (Escherichia coli RR1; Trypsin 2 mg ml^−1, 1 h at 37° C.): 62.5% | % of residual activity (Escherichia coli RR1; Urea 2 mg ml^−1, 1 h at 37° C.): 62.5% | Inhibition (inhibition zone) [1]: − | Inhibition (inhibition zone) [2]: − | Inhibition (inhibition zone) [3]: − | Inhibition (inhibition zone) [4]: − | Inhibition (inhibition zone) [5]: − | Inhibition (inhibition zone) [6]: − | Inhibition (inhibition zone) [7]: − | Inhibition (inhibition zone) [8]: − | Inhibition (inhibition zone) [9]: + (Diameter of the inhibition zone 10 ± 2 mm) | Inhibition (inhibition zone) [10]: + (Diameter of the inhibition zone 10 ± 2 mm) | Mode of action (E. coli RR1): bactericidal action | Inhibition (inhibition zone) [11]: + (Diameter of the inhibition zone 10 ± 2 mm) | Inhibition (inhibition zone) [12]: ++ (Diameter of the inhibition zone 16 ± 2 mm) | Inhibition (inhibition zone) (Escherichia coli LRC TB1): +++ (Diameter of the inhibition zone 28 ± 2 mm) | Inhibition (inhibition zone) (Escherichia coli LRC RR1): +++ (Diameter of the inhibition zone 28 ± 2 mm) | Inhibition (inhibition zone) [13]: ++ (Diameter of the inhibition zone 16 ± 2 mm) | Inhibition (inhibition zone) [14]: − | Inhibition (inhibition zone) (Listeria ivanovii HPB 28): − | Inhibition (inhibition zone) [15]: − | Inhibition (inhibition zone) (Listeria innocua HPB 13): −
